# Measurements taken from patent US20170296621A1, “NOD2-DEPENDENT PATHWAY OF CYTOPROTECTION OF STEM CELLS” (INSTITUT PASTEUR, priority 2012, published 2017).
# Where a name gives a salt, the structure may show the parent alone.
# B1: wnt ligand: 100 ng/ml wnt3 (R&D) added to stem cells (protein, UniProt P56703 22-355, looked up)
# Proto-oncogene Wnt-3: GYPIWWSLALGQQYTSLGSQPLLCGSIPGLVPKQLRFCRNYIEIMPSVAEGVKLGIQECQHQFRGRRWNCTTIDDSLAIFGPVLDKATRESAFVHAIASAGVAFAVTRSCAEGTSTICGCDSHHKGPPGEGWKWGGCSEDADFGVLVSREFADARENRPDARSAMNKHNNEAGRTTILDHMHLKCKCHGLSGSCEVKTCWWAQPDFRAIGDFLKDKYDSASEMVVEKHRESRGWVETLRAKYSLFKPPTERDLVYYENSPNFCEPNPETGSFGTRDRTCNVTSHGIDGCDLLCCGRGHNTRTEKRKEKCHCIFHWCCYVSCQECIRIYDVHTCK
# Legend:
# [1] = tested on: intestinal crypts; assay: Caspase-3 positive crypts in doxorubicin-treated mice; type: in vivo; conditions: intraperitoneal, 6 hours
# Description: FIG. 11 depicts the percentage of caspase-3 positive crypts in different conditions. The results are obtained after 6 hours.
# Line 1: WT, non-treated mice. Line 2: Nod2 KO mice, non-treated. Line 3: WT mice, treated with doxorubicin during 6 hours. Line 4: Nod2 KO mice, treated with doxorubicin during 6 hours. It can be observed that the absence of Nod2 induced more death in the crypts.
# B6.129P2-Lgr5^tm1(cre/ESR1)Cle/mice (Lgr5-EGFP) (Barker et al., 2007) were purchased from The Jackson Laboratories. Card4/Nod1 (Nod1 KO) mice were generated by Millenium pharmaceuticals Boston. Card15/Nod2 deficient C57BL/6J (Nod2 KO) (Barreau et al., 2007) were provided by J.-P. Hugot (Hôpital Robert Debré, Paris, France). All mice were kept in specific pathogen-free conditions. When indicated the mice were injected intraperitoneally with 200 μg of EdU (Invitrogen) 2 hrs prior to sacrifice or with 10 mg/kg doxorubicin hydrochloride (Sigma) and sacrificed at indicated time points. […]
# Doxorubicin in vivo. […] The percentage of crypts presenting at least one caspase3-positve cell was counted. […] To evaluate if upon doxorubicin treatment the proliferation index was affected, the number of EdU positive cells per crypts was counted and the percentage versus the total number of cells in the crypts was calculated.
# [2] = tested on: intestinal crypts; assay: Proliferation index and regenerative crypts after doxorubicin injection; type: in vivo, mice; conditions: for Percentage of regenerative crypts / Relative size of crypts: 72 h after injection; for Relative size of crypts: crypt width×crypt height
# Description: FIG. 13 illustrates the percentage of EdU-positive cells per crypt, in wild-type or Nod2 KO mice, after 2 hours of EdU (5-ethynyl-2-deoxyuridine) treatment.
# For the analysis of proliferation in the tissue, 10 mg/kg EdU were injected IP and the animals were sacrificed after 2 h. The Click-iT® EdU Alexa Fluor® 488 Imaging Kit was used on paraffin slides that were processed according to the manufacturer's instructions.
# The proliferation index was calculated as a percentage of EdU positive cells over the total number of cells in each crypt. Data from five mice each group were obtained and at least 50 crypts per section were examined for all histological parameters. A regenerative crypt was defined as a crypt containing more than 10 EdU positive cells per crypt. Relative crypt size was determined as crypt width×crypt height.
# In order to evaluate the capacity of stem cells to survive and repair the damaged tissue upon doxorubicin-treatment, the inventors used a modified clonogenic microcolony assay (Tustison et al). At 72 h wt mice presented higher percentage of regenerative/surviving crypts than in Nod2 KO mice and this was associated with a bigger size of the crypts (Table 1).
# [3] = tested on: intestinal stem cells in crypts; assay: Organoid formation under induced stress (doxorubicin or H2O2); type: cell-based, mice; conditions: 1 μM; after 4 days of treatment
# Description: By definition, the fold change of the untreated organoids is set to 1 in the absence of any additional stress, and the fold changes upon the various stimulation or stress conditions applied are by reference to the non-stimulated non-stressed organoids.
# Doxorubicin (1 μM) or H2O2 (200 μM) are added during the embedding of the crypts in the matrigel.
# Intestinal crypts were obtained following a protocol already described (Sato et al., 2009). After isolation small intestines were isolated, flushed with cold PBS followed by 0.3% bleach and again PBS, opened longitudinally and the villi were removed. The tissues were cutted in small pieces, washed in 5 mM PBS/EDTA for 5 min, and subsequently incubated in fresh 5 mM PBS/EDTA for 30 min on ice. After severals vigourous shakings the crypts, released in the supernatant, were passed through a cell strainer 70 μm (BD Falcon), spun down at 800 rpm, resuspended in DMEM and counted. The volume corresponding to 500 crypts was distributed in two tubes per condition, and spun down again. […] The crypts were embedded in 50 μl of growth factor reduced matrigel (BD Biosciences) in a 24-well plates, incubate at 37° C. 20 min and overload with 500 μl of crypts medium (CM) as described previously (Sato et al 2009). […]
# [4] = tested on: intestinal crypts; assay: Organoid formation from isolated intestinal crypts upon MAMP stimulation; type: cell-based, mice; conditions: wt crypts; 10 μg/ml
# Description: Crypts were stimulated with soluble sonicated peptidoglycan (PGN), muramyl-dipeptide (MDP), muramyl-tetrapeptide (Tetra-dap), Escherichia coli lipopolysaccharide (LPS) (each at 10 μg/ml), 10 ng/ml flagellin (Fla), 500 ng/ml synthetic lipoprotein (Pam3CSK), or 1 μM unmethylated CpG dinucleotides (CpG). The average number of non-stimulated organoids (control) is around 50, and the fold change value of the control is fixed to 1. The fold change upon the various MAMPs applied is thus by reference to non-stimulated organoids (Ctrl).
# Intestinal crypts were obtained following a protocol already described (Sato et al., 2009). After isolation small intestines were isolated, flushed with cold PBS followed by 0.3% bleach and again PBS, opened longitudinally and the villi were removed. The tissues were cutted in small pieces, washed in 5 mM PBS/EDTA for 5 min, and subsequently incubated in fresh 5 mM PBS/EDTA for 30 min on ice. After severals vigourous shakings the crypts, released in the supernatant, were passed through a cell strainer 70 μm (BD Falcon), spun down at 800 rpm, resuspended in DMEM and counted. The volume corresponding to 500 crypts was distributed in two tubes per condition, and spun down again. […] The crypts were embedded in 50 μl of growth factor reduced matrigel (BD Biosciences) in a 24-well plates, incubate at 37° C. […]
# [5] = tested on: crypts from Nod1 KO mice; assay: Organoid formation from crypts of Nod1 KO mice upon MAMP stimulation; type: cell-based
# Description: FIG. 4 illustrates the fold change in number of organoids, formed from extracted crypts, from mice knocked out for Nod1 or Nod2 genes, upon different MAMPs stimulation conditions. By definition, the fold change of the untreated organoids is set to 1, and the fold changes upon the various stimulation conditions applied are by reference to the non-stimulated organoids.
# Intestinal crypts were obtained following a protocol already described (Sato et al., 2009). After isolation small intestines were isolated, flushed with cold PBS followed by 0.3% bleach and again PBS, opened longitudinally and the villi were removed. […] After severals vigourous shakings the crypts, released in the supernatant, were passed through a cell strainer 70 μm (BD Falcon), spun down at 800 rpm, resuspended in DMEM and counted. […]
# [6] = tested on: wt stem cells (Lgr5-EGFP); assay: Single cells stimulation: organoids from sorted wt stem cells; type: cell-based, mice; conditions: wt stem cells alone; 500 cells per well
# Description: FIG. 8 depicts the average number of organoids formed per well, depending on the cell types seeded in the well, without stimulation, or under stimulation with MDP. 500 cells were seeded per well in a 96-wells-plate.
# Isolated crypts from Lgr5-EGFP mice or Nod2KO mice were incubated in HBSS w/o Ca^+2 and Mg^2+ supplemented with 0.3 U/ml Dispase (BD Biosciences), 0.8 U/ml DNase (Sigma) and 10 μM Y-27632 (Sigma) for 30 min at 37° C.
# Dissociated cells were washed with 1% PBS/BSA and stained with CD24-APC antibody (clone M1/69 BioLegend) and EpCam Pe-Cy7 (clone G8.8 BioLegend) for 20 min at 4° C., resuspended in crypts medium supplemented with 1 μM N-acetyl-L-cystein, 10 μM Jag-1 (Anaspec) and 10 μM Y-27632 (single cells medium-SCM) and filtered with a 20 μm mesh and analyzed with MoFlo legacy (Beckman Coulter).
# Singlets of viable epithelial cells were gated by negative staining for propidium iodide and positive staining for EpCam. The stem cells and Paneth cells were isolated respectively as GFP^hi+ population, and GFP^−CD24^hi+SSC^hi population.
# Stem cells and Paneth cells derived from Lgr5-EGFP or Nod2KO mice were cultured alone or in different combinations. 500 cells from each condition were re-suspended in 100 μl of single cells medium with or without MAMPs and, when indicated, with 100 ng/ml wnt3 (R&D), seeded in 96-wells round-bottom plates and incubated on ice for 15 min. […]
molecule,measurement,setting,value
"COc1cccc2c1C(=O)c1c(O)c3c(c(O)c1C2=O)C[C@@](O)(C(=O)CO)C[C@@H]3O[C@H]1C[C@H](N)[C@H](O)[C@H](C)O1 [doxorubicin, doxorubicin hydrochloride]",percentage of crypts with apoptotic (caspase-3 positive) cells,[1]; Nod2 KO mice,54%
same,percentage of crypts with apoptotic (caspase-3 positive) cells,[1]; wt mice,30%
same,Percentage of regenerative crypts,[2]; Nod2 KO mice,33.9 ± 9.4 %
same,Relative size of crypts,[2]; Nod2 KO mice,2538 ± 180
same,proliferation index in crypts (in words),"[2]; Nod2 KO mice, following days",low rate of proliferation
same,proliferation index in crypts (in words),"[2]; both wt and Nod2 KO mice, 6h until 24 h after injection",decrease in the rate of proliferation
same,proliferation index in crypts (in words),"[2]; wt mice, 48 h until 72 h",reaching almost the same rate observed in the non-treated mice
same,Percentage of regenerative crypts,[2]; wt mice,59.9 ± 6.4%
same,Relative size of crypts,[2]; wt mice,3231 ± 105
same,less organoids after treatment,[3],50%
"CC(=O)NC1C(O)OC(CO)C(O)C1OC(C)C(=O)NC(C)C(=O)NC(CCC(=O)NC(CCCC(N)C(=O)O)C(=O)NC(C)C(=O)O)C(=O)O (stereo not shown) [Tetra-dap, MurNAc-Tetra(DAP)]",number of organoids compared with non-stimulated (in words),[4],did not observe any differences and not
CC(=O)NC1C(O)OC(CO)C(O)C1OC(C)C(=O)NC(C)C(=O)NC(CCC(=O)O)C(N)=O (stereo not shown) [MDP-ctrl],number of organoids compared with control (in words),[5],No difference was observed
B1,average of organoids per well,[6],around 3 organoids per well
